row,Structure (SMILES),logP
1,Clc1ccc(-c2ccc(Cl)c(Cl)c2)c(Cl)c1,5.98
2,Clc1cc(Cl)c(-c2c(Cl)cc(Cl)c(Cl)c2Cl)cc1Cl,7.05
3,Clc1cc(-c2c(Cl)c(Cl)cc(Cl)c2Cl)cc(Cl)c1Cl,7.21
4,Clc1ccc(-c2cc(Cl)c(Cl)cc2Cl)c(Cl)c1,6.41
5,Clc1ccc(-c2cc(Cl)cc(Cl)c2Cl)c(Cl)c1,6.32
6,Clc1ccc(Cl)c(-c2c(Cl)c(Cl)c(Cl)c(Cl)c2Cl)c1Cl,7.21
7,Clc1cc(Cl)cc(-c2ccccc2)c1,5.41
8,Clc1ccc(-c2c(Cl)cccc2Cl)c(Cl)c1,5.51
9,Clc1cc(Cl)c(-c2c(Cl)c(Cl)c(Cl)c(Cl)c2Cl)cc1Cl,7.49
10,Clc1ccc(-c2ccc(Cl)cc2)cc1,5.23
11,Clc1ccc(-c2cc(Cl)cc(Cl)c2Cl)cc1,6.1
12,Clc1cc(Cl)c(-c2c(Cl)c(Cl)cc(Cl)c2Cl)cc1Cl,6.92
13,Clc1ccc(Cl)c(-c2ccccc2)c1Cl,5.44
14,Clc1ccc(Cl)c(-c2c(Cl)c(Cl)cc(Cl)c2Cl)c1Cl,6.41
15,Clc1cc(Cl)c(-c2c(Cl)cc(Cl)c(Cl)c2Cl)c(Cl)c1Cl,7.21
16,Clc1ccc(-c2ccccc2Cl)c(Cl)c1,5.39
17,Clc1cc(Cl)c(-c2cc(Cl)ccc2Cl)c(Cl)c1,6.11
18,Clc1cc(Cl)c(-c2ccccc2Cl)cc1Cl,5.69
19,Clc1ccc(Cl)c(-c2ccccc2Cl)c1,5.34
20,Clc1cc(-c2c(Cl)c(Cl)cc(Cl)c2Cl)c(Cl)c(Cl)c1Cl,7.35
21,Clc1ccc(Cl)c(-c2ccc(Cl)c(Cl)c2Cl)c1,6.23
22,Clc1ccc(-c2c(Cl)cc(Cl)cc2Cl)c(Cl)c1,6.23
23,Clc1ccc(-c2ccc(Cl)c(Cl)c2)cc1,5.78
24,Clc1ccc(-c2ccccc2)cc1,4.63
25,Clc1cccc(-c2cccc(Cl)c2)c1,5.27
26,Clc1ccc(-c2c(Cl)cccc2Cl)cc1Cl,5.76

row,Structure (SMILES),logP
1,Clc1ccc(-c2c(Cl)c(Cl)cc(Cl)c2Cl)cc1Cl,6.78
2,Clc1cccc(-c2ccccc2)c1Cl,4.99
3,Clc1cc(-c2c(Cl)c(Cl)c(Cl)c(Cl)c2Cl)c(Cl)c(Cl)c1Cl,7.94
4,Clc1cccc(-c2cc(Cl)c(Cl)cc2Cl)c1,6.32
5,Clc1cccc(-c2ccc(Cl)cc2Cl)c1,5.54
6,Clc1cc(Cl)c(Cl)c(-c2c(Cl)c(Cl)cc(Cl)c2Cl)c1,6.85
7,Clc1ccc(-c2ccccc2Cl)cc1,5.09
8,Clc1cc(Cl)c(-c2ccc(Cl)c(Cl)c2Cl)cc1Cl,6.72
9,Clc1cc(Cl)c(-c2cc(Cl)c(Cl)c(Cl)c2Cl)c(Cl)c1,6.92
10,Clc1cccc(-c2cc(Cl)cc(Cl)c2)c1,5.81
11,Clc1cc(Cl)cc(-c2c(Cl)c(Cl)c(Cl)c(Cl)c2Cl)c1,7.21
12,Clc1cc(-c2c(Cl)ccc(Cl)c2Cl)cc(Cl)c1Cl,6.63
13,Clc1ccccc1-c1c(Cl)cccc1Cl,5.04
14,Clc1cc(Cl)c(-c2ccccc2Cl)c(Cl)c1,5.75
15,Clc1cccc(-c2cccc(Cl)c2Cl)c1Cl,5.67
16,Clc1ccc(-c2c(Cl)cc(Cl)cc2Cl)cc1,6.03
17,Clc1cc(Cl)c(Cl)c(-c2c(Cl)c(Cl)c(Cl)c(Cl)c2Cl)c1,7.43
18,Clc1ccc(-c2ccccc2)c(Cl)c1,5.16
19,Clc1ccc(-c2cc(Cl)ccc2Cl)c(Cl)c1,5.87
20,Clc1cc(Cl)cc(-c2cc(Cl)cc(Cl)c2)c1,6.6
21,Clc1ccc(-c2c(Cl)c(Cl)cc(Cl)c2Cl)cc1,6.39
22,Clc1cccc(-c2cc(Cl)ccc2Cl)c1,5.65
23,Clc1ccccc1-c1ccccc1,4.42
24,Clc1ccc(Cl)c(-c2c(Cl)cc(Cl)c(Cl)c2Cl)c1,6.45
25,Clc1ccc(-c2c(Cl)ccc(Cl)c2Cl)cc1,5.76
26,Clc1ccc(-c2c(Cl)cc(Cl)c(Cl)c2Cl)c(Cl)c1Cl,6.99

row,Structure (SMILES),logP
1,Clc1cccc(Cl)c1-c1c(Cl)cccc1Cl,5.24
2,Clc1ccc(-c2cccc(Cl)c2Cl)c(Cl)c1,5.72
3,Clc1cc(Cl)c(Cl)c(-c2c(Cl)c(Cl)c(Cl)c(Cl)c2Cl)c1Cl,7.77
4,Clc1cc(Cl)c(-c2ccc(Cl)c(Cl)c2Cl)c(Cl)c1,6.58
5,Clc1cccc(-c2c(Cl)c(Cl)cc(Cl)c2Cl)c1,6.41
6,Clc1ccccc1-c1cc(Cl)c(Cl)c(Cl)c1Cl,6.39
7,Clc1ccc(-c2cccc(Cl)c2)cc1,5.15
8,Clc1cccc(-c2c(Cl)cc(Cl)cc2Cl)c1,6.03
9,Clc1cc(Cl)c(-c2c(Cl)c(Cl)cc(Cl)c2Cl)c(Cl)c1,6.78
10,Clc1cc(-c2cc(Cl)c(Cl)c(Cl)c2Cl)c(Cl)c(Cl)c1Cl,7.62
11,Clc1cc(Cl)c(Cl)c(-c2c(Cl)c(Cl)cc(Cl)c2Cl)c1Cl,7.16
12,Clc1ccc(-c2ccc(Cl)c(Cl)c2Cl)c(Cl)c1,6.18
13,Clc1ccc(Cl)c(-c2c(Cl)c(Cl)c(Cl)c(Cl)c2Cl)c1,6.99
14,Clc1ccccc1-c1ccc(Cl)c(Cl)c1Cl,5.79
15,Clc1ccc(-c2c(Cl)c(Cl)cc(Cl)c2Cl)c(Cl)c1Cl,6.73
16,Clc1cc(Cl)c(Cl)c(-c2c(Cl)cc(Cl)c(Cl)c2Cl)c1,6.92
17,Clc1cccc(-c2cc(Cl)c(Cl)c(Cl)c2Cl)c1,6.92
18,Clc1cc(-c2c(Cl)cc(Cl)c(Cl)c2Cl)cc(Cl)c1Cl,7.21
19,Clc1ccccc1-c1c(Cl)ccc(Cl)c1Cl,4.84
20,Clc1cc(-c2c(Cl)cc(Cl)c(Cl)c2Cl)c(Cl)c(Cl)c1Cl,7.43
21,Clc1cc(-c2c(Cl)ccc(Cl)c2Cl)c(Cl)c(Cl)c1Cl,6.85
22,Clc1cc(Cl)c(Cl)c(-c2cc(Cl)c(Cl)c(Cl)c2Cl)c1,7.21
23,Clc1ccccc1-c1cc(Cl)c(Cl)c(Cl)c1,5.98
24,Clc1cc(Cl)c(-c2ccc(Cl)c(Cl)c2)c(Cl)c1,6.4
25,Clc1ccc(Cl)c(-c2cc(Cl)cc(Cl)c2Cl)c1,6.32
26,Clc1cc(Cl)cc(-c2ccccc2Cl)c1,5.71

row,Structure (SMILES),logP
1,Clc1ccc(-c2c(Cl)c(Cl)c(Cl)c(Cl)c2Cl)c(Cl)c1,7.13
2,Clc1ccc(-c2cccc(Cl)c2Cl)cc1Cl,5.85
3,Clc1ccc(Cl)c(-c2ccccc2)c1,5.1
4,Clc1cc(Cl)cc(-c2c(Cl)cc(Cl)cc2Cl)c1,6.43
5,Clc1ccc(-c2c(Cl)cc(Cl)c(Cl)c2Cl)cc1,6.44
6,Clc1ccc(Cl)c(-c2c(Cl)cccc2Cl)c1,5.55
7,Clc1ccc(-c2cc(Cl)c(Cl)cc2Cl)cc1,6.1
8,Clc1cccc(-c2cc(Cl)c(Cl)c(Cl)c2Cl)c1Cl,6.76
9,Clc1ccc(-c2c(Cl)cc(Cl)c(Cl)c2Cl)cc1Cl,6.78
10,Clc1ccccc1-c1c(Cl)c(Cl)cc(Cl)c1Cl,6.06
11,Clc1cc(Cl)c(-c2c(Cl)c(Cl)c(Cl)c(Cl)c2Cl)c(Cl)c1,7.48
12,Clc1ccc(-c2c(Cl)c(Cl)c(Cl)c(Cl)c2Cl)c(Cl)c1Cl,7.35
13,Clc1cccc(-c2c(Cl)cccc2Cl)c1Cl,4.84
14,Clc1ccc(Cl)c(-c2cc(Cl)c(Cl)c(Cl)c2Cl)c1,6.75
15,Clc1cc(Cl)cc(-c2c(Cl)ccc(Cl)c2Cl)c1,6.45
16,Clc1ccc(Cl)c(-c2cc(Cl)c(Cl)cc2Cl)c1,6.3
17,Clc1cc(Cl)c(-c2cccc(Cl)c2Cl)c(Cl)c1,6.04
18,Clc1cc(-c2c(Cl)c(Cl)c(Cl)c(Cl)c2Cl)cc(Cl)c1Cl,7.62
19,Clc1ccc(-c2c(Cl)cccc2Cl)cc1,5.24
20,Clc1ccc(-c2c(Cl)c(Cl)c(Cl)c(Cl)c2Cl)cc1Cl,7.08
21,Clc1ccc(-c2ccccc2)c(Cl)c1Cl,5.68
22,Clc1ccc(-c2ccc(Cl)cc2Cl)c(Cl)c1,5.94
23,Clc1ccc(-c2c(Cl)cccc2Cl)c(Cl)c1Cl,5.6
24,Clc1ccc(-c2ccccc2Cl)cc1Cl,5.71

# Reference: the SangsterLogP compilation
